In patent publication US12194080B2, “Methods for identification, assessment, prevention, and treatment of metabolic disorders using PM20D1 and N-lipidated amino acids” (Dana-Farber Cancer Institute, Inc., priority 2015, dated 2025):

What was measured:
[1] = tested on: primary inguinal fat cells, primary BAT cells, C2C12 cells, and U2OS cells; assay: Uncoupled respiration cellular assays (variety of cell types); type: cell-based; conditions: N-acyl amino acids at 10-100 uM
Method: (§1) Cellular oxygen consumption rates were determined using an XF24 Extracellular Flux Analyzer (Seahorse Biosciences). Oligomycin was purchased from EMD Millipore, and FCCP and rotenone were purchased from Sigma. C2C12 or U2OS cells were seeded at 30,000 or 50,000 cells/well, respectively in an XF24 cell culture microplate (V7-PS, Seahorse Bioscience) and analyzed the following day. Primary iWAT or BAT adipocytes were seeded at 15,000 cells/well, differentiation was induced the following day as described, and the cells were analyzed on day 5. On the day of analysis, the cells were washed once with Seahorse respiration buffer (8.3 g/1 DMEM, 1.8 g/l NaCl, 1 mM pyruvate, 20 mM glucose, pen/strep), placed in 0.5 ml Seahorse respiration buffer, and incubated in a CO2-free incubator for 1 hr. Port injection solutions were prepared as follows (final concentrations in assay in parentheses): 10 μM oligomycin (1 μM final), […] amino acid (50 μM final), 2 μM FCCP (0.2 μM final), and 30 μM rotenone (3 μM final). The Seahorse program was run as follows: basal measurement, 3 cycles; inject port A (oligomycin), 3 cycles; inject port B (compounds), 8 cycles; inject port C (FCCP), 3 cycles; inject port D (rotenone), 3 cycles. Each cycle consisted of mix 4 min, wait 0 min, and measure 2 min. For data expressed as a percentage of oligomycin-treated basal, the respiration at cycle 6 was normalized to 100%, and the maximum respiration at any time point between cycles 7 and 15 inclusive was used.

C2C12 cells = assay: Cellular oxygen consumption rate (uncoupled respiration), C2C12 cells; type: cell-based, mouse; conditions: 50 μM, after oligomycin 1 μM
Method: C2C12, U2O5, and 293A cells were cultured in DMEM with 10% FBS and pen/strep. Primary inguinal (iWAT) and brown (BAT) adipocytes were obtained as follows. The stromal-vascular fraction of inguinal (iWAT) pad from 4-12 week old male mice was dissected, minced, and digested for 45 min. at 37° C. in PBS containing 10 mM CaCl2, 2.4 U/ml dispase II (Roche), and 1.5 U/ml collagenase D (Roche). The stromal-vascular fraction of brown fat (BAT) pads from newborn (P1-P14) pups was dissected, minced, and digested for 45 min at 37° C. in PBS containing 1.3 mM CaCl2, 120 mM NaCl, 5 mM KCl, 5 mM glucose, 100 mM HEPES, 4% BSA, and 1.5 mg/ml collagenase B (Roche). Digested tissue was diluted with adipocyte culture media (DMEM/F-12, GlutaMAX™ supplement, Life Technologies, with 10% FBS and pen/strep) and centrifuged (600×g for 10 min.). The pellet was resuspended in 10 ml adipocyte culture media, strained through a 40 μm filter, and plated. Differentiation was induced by application of an adipogenic cocktail containing 5 μg/ml insulin (Sigma), 5 μM dexamethasone (Sigma), 250 μM isobutylmethylxanthine (Sigma), and 1 μM rosiglitazone (Cayman) for 2 days. Two days after induction, cells were maintained in adipocyte culture media containing 5 μg/ml insulin and 1 μM rosiglitazone.
as §1

mouse PM20D1 [2] = molecular target: T1, mouse PM20D1 (Mus musculus, UniProt Q8C165); assay: In vitro PM20D1-catalyzed N-acyl amino acid hydrolysis; type: biochemical; conditions: N-acyl amide substrate 100 μM
T1 construct: Full-length mouse Pm20d1 cDNA (GE Dharmacon) was subcloned with an in-frame C-terminal 6× His and FLAG® tag; made in house; host or cells: 293A (HEK293A) cells stably infected with retrovirus
T1 sequence (Q8C165 25-503): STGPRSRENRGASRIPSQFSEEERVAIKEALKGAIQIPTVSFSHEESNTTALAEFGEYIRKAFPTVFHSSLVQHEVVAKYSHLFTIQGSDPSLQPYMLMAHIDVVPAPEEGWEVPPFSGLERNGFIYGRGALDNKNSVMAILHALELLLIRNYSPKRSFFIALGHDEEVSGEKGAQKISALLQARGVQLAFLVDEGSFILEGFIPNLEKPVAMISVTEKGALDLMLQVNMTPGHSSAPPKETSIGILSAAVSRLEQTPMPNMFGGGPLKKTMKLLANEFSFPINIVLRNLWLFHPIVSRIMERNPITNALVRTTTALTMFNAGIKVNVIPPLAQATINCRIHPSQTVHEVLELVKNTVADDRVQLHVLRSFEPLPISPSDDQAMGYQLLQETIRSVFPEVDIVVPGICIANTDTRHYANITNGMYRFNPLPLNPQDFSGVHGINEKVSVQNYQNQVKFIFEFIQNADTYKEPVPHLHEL
Method: (§2) The concentrated media was centrifuged to remove debris (600×g, 10 min, 4° C.) and the supernatant containing PM20D1-flag was decanted into a new tube. PM20D1-Flag was immunoaffinity purified overnight at 4° C. from the concentrated media using magnetic Flag-M2 beads (Sigma Aldrich). The beads were collected, washed three times in PBS, eluted with 3× Flag peptide ([…] in PBS, Sigma Aldrich), aliquoted, and stored at −80° C. For the purification of human PM20D1-flag, hPM20D1-flag plasmid (Origene) was transiently transfected into 293A cells. After two days, the media was changed, harvested 24 h later, concentrated, and purified exactly as described above.
(§3) In vitro PM20D1-catalyzed synthesis of N-acyl amino acids was measured by incubating purified PM20D1 protein with oleate (1.5 mM) and phenylalanine (0.1 mM) in PBS (to 100 μl final volume) at 37° C. for 1.5 hrs. In vitro PM20D1-catalyzed N-acyl amino acid hydrolysis was measured by incubating purified PM20D1 protein with the indicated N-acyl amino acid (0.1 mM) in PBS (to 100 μl final volume) at 37° C. for 1.5 hrs. Reactions were terminated by placing the vials at −80° C. and the products generated in vitro were analyzed by mass spectroscopy (MS).
(§4) Briefly, frozen serum (30 μl) for polar metabolomic analyses were extracted in 160 μl of 1:1 acetonitrile/methanol with inclusion of internal standard D3, ^15N-serine (1 nmol). Activity assays (100 μl) were extracted in 400 μl 1:1 acetonitrile/methanol. Following 30 s of thorough vortexing and 1 min of bath sonication, the polar metabolite fraction (supernatant) was isolated by centrifugation at 13,000×g for 10 min. Ten μl of this supernatant was analyzed by SRM-based targeted LC-MS/MS, or untargeted LC-MS.
(§5) For separation of polar metabolites, normal-phase chromatography was performed with a […] column (50 mm×4.60 mm, Phenomenex). Mobile phases were as follows: Buffer A, acetonitrile; Buffer B, 95:5 water/acetonitrile with 0.1% formic acid or 0.2% ammonium hydroxide with 50 mM ammonium acetate for positive and negative ionization mode, respectively. The flow rate for each run started at 0.2 ml/min for 2 min, followed by a gradient starting at 0% B and increasing linearly to 100% B over the course of 15 min with a flow rate of 0.7 ml/min, followed by an isocratic gradient of 100% B for 10 min at 0.7 ml/min before equilibrating for 5 min at 0% B with a flow rate of 0.7 ml/min. MS analysis was performed with an electrospray ionization (ESI) source on an Agilent 6430 QQQ LC—MS/MS. The capillary voltage was set to 3.5 kV, and the fragmentor voltage was set to 100 V. The drying gas temperature was 325° C., the drying gas flow rate was 10 l/min, and the nebulizer pressure was 45 psi. For polar targeted and untargeted metabolomic analysis, representative metabolites were quantified by SRM of the transition from precursor to product ions (corresponding to amino acid fragment) at associated collision energies. Several representative fragmentation ions are as follows: C18:1-Ala, 352>88; C18:1-Gly, 338>74; C18:1-Phe, 428>164; C18:1-Leu/Ile, 394>130; C20:4-Phe, 450>164; C20:4-Leu/Ile, 416>130. Untargeted LC-MS was performed by scanning a mass range of m/z 50-1200, and data were exported as mzdata files and uploaded to XCMSOnline (xcmsserver.nutr.berkeley.edu) to identify metabolites that were differentially changed. For targeted metabolomics analysis, metabolites were quantified by integrating the area under the peak and were normalized to internal standard values corresponding to 1 nmol D3, ^15N-serine.

mouse PM20D1 [3] = molecular target: T1, mouse PM20D1; assay: In vitro PM20D1-catalyzed synthesis of N-acyl amino acids; type: biochemical; conditions: for substrate of the PM20D1 synthase reaction: head group 100 μM, oleate or arachidonate 1.5 mM, C18:1-CoA 0.7 mM
Method: as §2, §3, §4, §5

Row | Structure (SMILES) | uncoupled respiration in cells [1] | uncoupling activity (uncoupled respiration) (C2C12 cells) | further results
1 | CCCCC/C=C\C/C=C\C/C=C\C/C=C\CCCC(=O)NCCCC(=O)O [N-arachidonoyl gamma amino butyric acid] | increased uncoupled respiration | stimulate uncoupled respiration | 
2 | CCCCCCCCCCCCCCCC(=O)N[C@@H](Cc1ccccc1)C(=O)OC [N-palmitoyl phenylalanine methyl ester] | inactive |  | 
3 | CCCCCC[C@@H](O)C/C=C\CCCCCCCC(=O)N[C@@H](C)c1ccccc1 [(S)-alpha-methylbenzyl ricinoleamide, reference compound] | inactive |  | 
4 | CCCCCCCC/C=C\CCCCCCCC(=O)NCC(=O)O [C18:1-Gly] |  |  | substrate of the PM20D1 hydrolysis reaction (mouse PM20D1 [2]): substrates
5 | CCCCCCCC/C=C\CCCCCCCC(=O)N[C@@H](CCC(N)=O)C(=O)O [C18:1-Gln, Oleoyl-L-glutamine] |  | possessed the uncoupling activity | 
6 | CCCCCCCC/C=C\CCCCCCCC(=O)N[C@@H](CCCCN)C(=O)O [C18:1-Lys, Oleoyl-L-lysine] |  | not | 
7 | NCCO [ethanolamine] |  |  | substrate of the PM20D1 synthase reaction (mouse PM20D1 [3]): not substrates for the synthase reaction
8 | CCCCCCCC/C=C\CCCCCCCC(=O)N[C@@H](Cc1ccccc1)C(=O)OC [N-oleoyl phenylalanine methyl ester, Methyl oleoyl-L-phenylalaninate] | inactive | completely abrogated uncoupling activity | 
9 | CC(=O)[O-].CC(=O)[O-].[Zn+2] [Zn(OAc)2] |  |  | effect on PM20D1 reaction rate (mouse PM20D1 [3]; 2 mM added to the reaction in PBS): does not augment reaction rate and may decrease the rate
10 | CCCCCCCC/C=C\CCCCCCCC(=O)N[C@@H](CO)C(=O)O [C18:1-Ser] |  |  | substrate of the PM20D1 hydrolysis reaction (mouse PM20D1 [2]): substrates
11 | N[C@@H](CCC(=O)O)C(=O)O [glutamate] |  |  | substrate of the PM20D1 synthase reaction (mouse PM20D1 [3]): not substrates for the synthase reaction
12 | CCCCCCCC/C=C\CCCCCCCC(=O)N[C@@H](Cc1ccccc1)C(N)=O [N-oleoyl phenylalanine amide, (S)-N-(1-amino-1-oxo-3-phenylpropan-2-yl)oleamide] | inactive | completely abrogated uncoupling activity | 
13 | CCCCC/C=C\C/C=C\C/C=C\C/C=C\CCCCOC(CO)CO [noladin ether, reference compound] | inactive |  | 
14 | CCCCC/C=C\C/C=C\C/C=C\C/C=C\CCCC(=O)N[C@H](C)CO [methanandamide, R(+)-methanandamide, reference compound] | inactive | did not stimulate uncoupled respiration | 
15 | CCCCC/C=C\C/C=C\C/C=C\C/C=C\CCCC(=O)N[C@@H](CO)C(=O)O [N-arachidonoyl serine] | increased uncoupled respiration |  | 
16 | CCCCC/C=C\C/C=C\C/C=C\C/C=C\CCCC(=O)NC [N-arachidonoyl N-methyl amide, N-methyl N-arachidonoyl amide, reference compound] | inactive | did not stimulate uncoupled respiration | 
17 | CCCCC/C=C\C/C=C\CCCCCCCC(=O)N[C@@H](Cc1ccccc1)C(=O)O [N-linoleoyl phenylalanine] | increased uncoupled respiration |  | 
18 | N[C@@H](Cc1ccccc1)C(=O)O [Phe, phenylalanine] |  |  | substrate of the PM20D1 synthase reaction (mouse PM20D1 [3]): most efficiently converted to its corresponding N-acyl amino acid product
19 | CCCCC/C=C\C/C=C\C/C=C\C/C=C\CCCC(=O)NCCc1ccc(O)c(O)c1 [N-arachidonoyl dopamine, reference compound] | inactive | did not stimulate uncoupled respiration | 
20 | CCCCC/C=C\C/C=C\C/C=C\C/C=C\CCCC(=O)NCCS(=O)(=O)O [N-arachidonoyl taurine, reference compound] | inactive | did not stimulate uncoupled respiration | 
